Patent US7855310B2, “AH receptor antagonists” (SYMRISE GmbH & Co. KG, priority 2006, dated 2010)

Columns and labels:
[1] = Light stability test (solar simulator, HPLC quantification); type: physicochemical; details: wt. % based on sum E isomer + Z isomer; for Degradation after 2 h: solar simulator 40 W/m^2, 2 h; for Degradation after 4 h: solar simulator 40 W/m^2, 4 h
Method: 20 μl of a 1-3 wt. % solution of each of the test compounds of formula (I) in a low-volatility solvent (e.g. isopropyl myristate, miglyol or glycerol) are distributed uniformly over microscope slides using a pipette. These loaded slides are then irradiated in a solar simulator with an intensity of 40 W/m^2 (for 2 h or 4 h in each case).
When the irradiation has ended, the slides are each separately laid in a glass dish containing an organic solvent (methanol, isopropanol, etc.) and the organic substances present thereon are detached in an ultrasonic bath. The resulting solutions are each transferred to a 10 ml or 25 ml volumetric flask and made up to the calibration mark with solvent. Non-irradiated slides are treated likewise as references.
The samples (contents of the respective volumetric flasks) are evaluated via HPLC quantification. These values are compared with the non-irradiated references and the degradation rate during irradiation is reported in [wt. %] per unit time, based on the sum [E isomer+Z isomer].

[2] = target: T1, AhR (Homo sapiens, UniProt P35869); experiment: Fluorescence microscopy of GFP-coupled AhR translocation in HaCaT cells transfected with pEGFP-AhR; type: cell-based; details: in the presence and absence of UVB light
T1 construct: endogenous in cells; host or cells: HaCaT keratinocytes
T1 sequence (P35869 11-848): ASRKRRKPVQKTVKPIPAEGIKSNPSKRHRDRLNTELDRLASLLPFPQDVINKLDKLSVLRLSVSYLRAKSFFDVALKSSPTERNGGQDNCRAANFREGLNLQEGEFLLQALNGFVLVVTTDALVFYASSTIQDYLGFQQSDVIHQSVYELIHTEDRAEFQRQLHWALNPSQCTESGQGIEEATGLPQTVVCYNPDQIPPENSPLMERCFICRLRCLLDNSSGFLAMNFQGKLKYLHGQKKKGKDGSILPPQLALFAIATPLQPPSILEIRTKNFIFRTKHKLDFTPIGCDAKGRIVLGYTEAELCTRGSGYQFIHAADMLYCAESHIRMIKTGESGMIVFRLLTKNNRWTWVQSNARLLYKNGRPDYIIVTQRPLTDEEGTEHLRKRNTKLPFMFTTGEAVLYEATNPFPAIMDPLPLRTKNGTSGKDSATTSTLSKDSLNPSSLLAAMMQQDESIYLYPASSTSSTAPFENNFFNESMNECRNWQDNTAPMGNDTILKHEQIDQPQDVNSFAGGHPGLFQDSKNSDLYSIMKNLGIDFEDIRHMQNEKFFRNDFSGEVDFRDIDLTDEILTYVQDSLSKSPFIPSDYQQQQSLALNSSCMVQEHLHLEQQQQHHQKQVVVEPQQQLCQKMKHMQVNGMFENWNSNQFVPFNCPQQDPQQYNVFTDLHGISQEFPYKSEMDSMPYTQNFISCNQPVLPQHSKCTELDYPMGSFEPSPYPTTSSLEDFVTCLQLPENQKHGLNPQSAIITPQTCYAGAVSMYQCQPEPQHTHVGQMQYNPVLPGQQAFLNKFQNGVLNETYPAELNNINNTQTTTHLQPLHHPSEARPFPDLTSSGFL
From the text: HaCaT keratinocytes were cultivated in DMEM containing 10% of foetal calf serum. The cells were irradiated with UVB in PBS (phosphate buffered saline). For irradiation with UVB we used a TL20W/12RS lamp, which contains four parallel tubes (Philips, Eindhoven, The Netherlands) and emits the bulk of its energy in the UVB range (290-320 nm). The emission peak of the lamp is at 310 nm. Control cells were subjected to the same treatment but were not irradiated. To inhibit the AhR, the cells were treated with the test substances 1 h prior to irradiation.
HaCaT cells were plated out on compartmentalized microscope slides at a cell density of 5×10^4 cells/compartment. Some were pretreated for 1 h with the test substances. After 24 h these were transfected with plasmid pEGFP-AhR by means of the FuGene 6 transfection reagent (Roche, Mannheim, Germany) according to the manufacturer's instructions. After a further 24 h the transfected cells were irradiated with 100 J/m^2 of UVB. After 40 min the cells were fixed for 10 min with 4% paraformaldehyde and washed with PBS. The slides were dried and covered with Vectashield mounting medium (Vector Laboratories, Burlingame, Calif., USA). The GFP-coupled AhR was visualized by means of a fluorescence microscope (Olympus, Hamburg, Germany) and photographed with a ColorView XS digital camera (Olympus).

COc1cc2c(cc1OC)C(C)(C)/C(=C\c1ccccc1)C2=O [Compound (Ia)]
Degradation after 2 h [1]: 7%
Degradation after 4 h [1]: 7%

CC1=C(/C=C/C(C)=C/C=C/C(C)=C/C(=O)O)C(C)(C)CCC1 [Vitamin A acid, reference compound]
Degradation after 2 h [1]: 95%
Degradation after 4 h [1]: 100%

CCCCOc1cc2c(cc1C)C(=O)/C(=C/c1ccc(OC)cc1)C2(C)C [(Id)]
Degradation after 2 h [1]: 7%
Degradation after 4 h [1]: 11%

COc1ccc(/C=C2/C(=O)c3ccccc3C2(C)C)cc1OC [(Ib)]
Degradation after 2 h [1]: 4%
Degradation after 4 h [1]: 15%

Oc1ccc(C=Cc2cc(O)cc(O)c2)cc1 (mixture of isomers) [Resveratrol (E/Z mixture), 3,5,4′-trihydroxystilbene, reference compound]
Degradation after 2 h [1]: 77%
Degradation after 4 h [1]: 84%

COc1cc(-c2cc(=O)c3ccccc3o2)ccc1[N+](=O)[O-] [3-methoxy-4-nitroflavone]
translocation of the AhR into the cell nucleus [2]: inhibited the translocation of the AhR into the cell nucleus
